Test results reported in US9527832B2, “Substituted condensed pyrimidine compounds” (GRÜNENTHAL GMBH, priority 2013, dated 2016).
Each block holds one compound with its values, some of them ahead of it.

Target: T1, human PDE4B1 (Homo sapiens, UniProt Q07343)
T1 construct: host or cells: Sf9 cells
Test: cAMP HTRF assay to determine the activity of hPDE4B1
Assay type: biochemical
Settings: for IC50: dose response measurements with eight concentrations, reported as ranges, read-out: IC50
Protocol: cAMP HTRF® Assay to Determine the Activity of hPDE4B1
The inhibiting effect of the compounds on the enzyme activity of human PDE4B1 was measured by the quantification of 5′-adenosine monophosphate (5′-AMP), which is formed from 3′,5′-cyclic adenosine monophosphate (cAMP). Human recombinant enzyme, expressed in Sf9 cells, and the HTRF (homogeneous time-resolved fluorescence) detection method were used in the assay.
The test compound or water (control) was mixed with the human recombinant PDE4B1 enzyme (4.8 U) in a buffer consisting of 44.4 mM tris-HCl, 5.28 mM MgCl2, 2.64 mM DTT and 0.044% Tween 20 (pH 7.8). After adding the cAMP enzyme substrate (final concentration 40 nM), the mixture was incubated for 30 minutes at room temperature. Then a fluorescence acceptor (Dye2 marked with cAMP), a fluorescence donor (anti-cAMP antibody marked with a europium cryptate) and the non-specific phosphodiesterase inhibitor IBMX (3-isobutyl-1-methylxanthine; final concentration 1 mM) were added. After 60 minutes the fluorescence transfer, which correlates with the amount of remaining cAMP, was measured with a microplate reader (Rubystar, BMG) at λex=337 nm, λem=620 nm and λem=665 nm. The enzyme activity was calculated from the quotient formed from the measured signal at 665 nm and that at 620 nm. The result was expressed as the percentage inhibition of enzyme activity of the control (without PDE4 inhibitor). The enzyme was omitted for measurement of the basal control.
IC50 values (IC50=concentration causing a half-maximal inhibition of control specific activity) were derived from dose response measurements with eight different concentrations (n=2; N=1-2).
Literature: N. Saldou et al., Comparison of recombinant human PDE4 isoforms: interaction with substrate and inhibitors, Cell. Signal. Vol. 10, No. 6, 427-440, 1998

[1] = Percentage inhibition of PDE4B at 1 μM test concentration

T1 sequence (Q07343 whole entry): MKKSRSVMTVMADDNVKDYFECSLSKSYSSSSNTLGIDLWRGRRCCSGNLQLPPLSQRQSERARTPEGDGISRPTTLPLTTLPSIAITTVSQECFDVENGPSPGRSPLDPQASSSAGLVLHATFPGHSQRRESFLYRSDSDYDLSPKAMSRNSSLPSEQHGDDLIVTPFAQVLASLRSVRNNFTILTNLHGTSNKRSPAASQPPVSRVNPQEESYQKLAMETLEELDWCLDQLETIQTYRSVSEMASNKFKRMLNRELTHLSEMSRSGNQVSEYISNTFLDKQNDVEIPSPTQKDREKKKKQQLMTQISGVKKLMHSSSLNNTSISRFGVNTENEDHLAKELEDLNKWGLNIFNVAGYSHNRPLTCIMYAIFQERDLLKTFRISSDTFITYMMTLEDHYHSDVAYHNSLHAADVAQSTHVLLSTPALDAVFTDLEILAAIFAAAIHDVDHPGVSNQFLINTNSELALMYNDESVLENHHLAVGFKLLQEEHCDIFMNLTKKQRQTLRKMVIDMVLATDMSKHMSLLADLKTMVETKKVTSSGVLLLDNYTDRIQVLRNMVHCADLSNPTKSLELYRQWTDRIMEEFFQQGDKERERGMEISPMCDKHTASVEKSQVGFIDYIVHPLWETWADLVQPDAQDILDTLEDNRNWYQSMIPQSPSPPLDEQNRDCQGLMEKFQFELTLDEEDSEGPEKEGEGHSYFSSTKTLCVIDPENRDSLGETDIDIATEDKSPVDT

SMILES: CN(C)C(=O)COc1ccc2c(c1)N(c1nc(-c3cccc(C(F)(F)F)c3)nc3c1C[S+]([O-])C3)CC2 (centres unmarked) [2-101, N,N-Dimethyl-2-[[1-[6-oxo-2-[3-(trifluoromethyl)phenyl]-5,7-dihydro-thieno[3,4-d]pyrimidin-4-yl]-2,3-dihydro-1H-indol-6-yl]oxy]-acetamide]
inhibition at 1 µM [1]: 120%
IC50: < 100 nM

SMILES: CN(C)C(=O)COc1ccc2c(c1)N(c1nc(-c3ccoc3)nc3c1C[S+]([O-])C3)CC2 (centres unmarked) [2-102, 2-[[1-[2-(Furan-3-yl)-6-oxo-5,7-dihydro-thieno[3,4-d]pyrimidin-4-yl]-2,3-dihydro-1H-indol-6-yl]oxy]-N,N-dimethyl-acetamide]
inhibition at 1 µM [1]: 110%
IC50: < 100 nM

SMILES: CN(C)C(=O)COc1ccc2c(c1)N(c1nc(-c3ccc(S(C)(=O)=O)cc3)nc3c1C[S+]([O-])C3)CC2 (centres unmarked) [2-106, N,N-Dimethyl-2-[[1-[2-(4-methylsulfonyl-phenyl)-6-oxo-5,7-dihydro-thieno[3,4-d]pyrimidin-4-yl]-2,3-dihydro-1H-indol-6-yl]oxy]-acetamide]
inhibition at 1 µM [1]: 104%
IC50: < 100 nM

SMILES: CN(C)C(=O)COc1ccc2c(c1)N(c1nc(-c3cccc(S(C)(=O)=O)c3)nc3c1C[S+]([O-])C3)CC2 (centres unmarked) [2-107, N,N-Dimethyl-2-[[1-[2-(3-methylsulfonyl-phenyl)-6-oxo-5,7-dihydro-thieno[3,4-d]pyrimidin-4-yl]-2,3-dihydro-1H-indol-6-yl]oxy]-acetamide]
inhibition at 1 µM [1]: 113%
IC50: < 100 nM

SMILES: CN(C)C(=O)COc1ccc2c(c1)N(c1nc(-c3cccc(C(N)=O)c3)nc3c1C[S+]([O-])C3)CC2 (centres unmarked) [2-108, 3-[4-[6-[(Dimethyl-carbamoyl)-methoxy]-2,3-dihydro-1H-indol-1-yl]-6-oxo-5,7-dihydro-thieno[3,4-d]pyrimidin-2-yl]-benzamide]
inhibition at 1 µM [1]: 62%

SMILES: CC(=O)Nc1ccc(-c2nc3c(c(N4CCc5ccc(OCC(=O)N(C)C)cc54)n2)C[S+]([O-])C3)cc1 (centres unmarked) [2-109, 2-[[1-[2-(4-Acetylamino-phenyl)-6-oxo-5,7-dihydro-thieno[3,4-d]pyrimidin-4-yl]-2,3-dihydro-1H-indol-6-yl]oxy]-N,N-dimethyl-acetamide]
inhibition at 1 µM [1]: 98%
IC50: < 100 nM

SMILES: CCOc1ccc(-c2nc3c(c(N4CCc5ccc(OCC(=O)N(C)C)cc54)n2)C[S+]([O-])C3)cc1 (centres unmarked) [2-110, 2-[[1-[2-(4-Ethoxyphenyl)-6-oxo-5,7-dihydro-thieno[3,4-d]pyrimidin-4-yl]-2,3-dihydro-1H-indol-6-yl]oxy]-N,N-dimethyl-acetamide]
inhibition at 1 µM [1]: 119%
IC50: < 100 nM

SMILES: CN(C)C(=O)COc1ccc2c(c1)N(c1nc(-c3cc(F)ccc3F)nc3c1C[S+]([O-])C3)CC2 (centres unmarked) [2-113, 2-[[1-[2-(2,5-Difluoro-phenyl)-6-oxo-5,7-dihydro-thieno[3,4-d]pyrimidin-4-yl]-2,3-dihydro-1H-indol-6-yl]oxy]-N,N-dimethyl-acetamide]
inhibition at 1 µM [1]: 99%
IC50: < 100 nM

SMILES: CN(C)C(=O)COc1ccc2c(c1)N(c1nc(-c3cncnc3)nc3c1C[S+]([O-])C3)CC2 (centres unmarked) [2-144, N,N-Dimethyl-2-[[1-(6-oxo-2-pyrimidin-5-yl-5,7-dihydro-thieno[3,4-d]pyrimidin-4-yl)-2,3-dihydro-1H-indol-6-yl]oxy]-acetamide]
inhibition at 1 µM [1]: 92%
IC50: 100 to 1000 nM

SMILES: CN(C)C(=O)COc1ccc2c(c1)N(c1nc(-c3ccc4c(c3)OCO4)nc3c1C[S+]([O-])C3)CC2 (centres unmarked) [2-145, 2-[[1-[2-(1,3-Benzodioxo1-5-yl)-6-oxo-5,7-dihydro-thieno[3,4-d]pyrimidin-4-yl]-2,3-dihydro-1H-indol-6-yl]oxy]-N,N-dimethyl-acetamide]
inhibition at 1 µM [1]: 95%
IC50: < 100 nM

SMILES: CN(C)C(=O)COc1ccc2c(c1)N(c1nc(-c3cnc4ccccc4c3)nc3c1C[S+]([O-])C3)CC2 (centres unmarked) [2-146, N,N-Dimethyl-2-[[1-(6-oxo-2-quinolin-3-yl-5,7-dihydro-thieno[3,4-d]pyrimidin-4-yl)-2,3-dihydro-1H-indol-6-yl]oxy]-acetamide]
inhibition at 1 µM [1]: 104%
IC50: < 100 nM

SMILES: CN(C)C(=O)COc1ccc2c(c1)N(c1nc(-c3ccc4cc[nH]c4c3)nc3c1C[S+]([O-])C3)CC2 (centres unmarked) [2-147, 2-[[1-[2-(1H-Indol-6-yl)-6-oxo-5,7-dihydro-thieno[3,4-d]pyrimidin-4-yl]-2,3-dihydro-1H-indol-6-yl]oxy]-N,N-dimethyl-acetamide]
inhibition at 1 µM [1]: 86%
IC50: < 100 nM

SMILES: CN(C)C(=O)COc1ccc2c(c1)N(c1nc(-c3ccc4cnccc4c3)nc3c1C[S+]([O-])C3)CC2 (centres unmarked) [2-148, 2-[[1-(2-Isoquinolin-6-yl-6-oxo-5,7-dihydro-thieno[3,4-d]pyrimidin-4-yl)-2,-dihydro-1H-indol-6-yl]oxy]-N,N-dimethyl-acetamide]
inhibition at 1 µM [1]: 100%
IC50: < 100 nM

SMILES: CN(C)C(=O)COc1ccc2c(c1)N(c1nc(-c3ccc4ccncc4c3)nc3c1C[S+]([O-])C3)CC2 (centres unmarked) [2-150, 2-[[1-(2-Isoquinolin-7-yl-6-oxo-5,7-dihydro-thieno[3,4-d]pyrimidin-4-yl)-2,3-dihydro-1H-indol-6-yl]oxy]-N,N-dimethyl-acetamide]
inhibition at 1 µM [1]: 126%
IC50: < 100 nM

SMILES: CN(C)C(=O)COc1ccc2c(c1)N(c1nc(-c3cccc4[nH]ccc34)nc3c1C[S+]([O-])C3)CC2 (centres unmarked) [2-151, 2-[[1-[2-(1H-Indol-4-yl)-6-oxo-5,7-dihydro-thieno[3,4-d]pyrimidin-4-yl]-2,3-dihydro-1H-indol-6-yl]oxy]-N,N-dimethyl-acetamide]
inhibition at 1 µM [1]: 108%
IC50: < 100 nM

SMILES: CN(C)C(=O)COc1ccc2c(c1)N(c1nc(-c3ccc4[nH]ccc4c3)nc3c1C[S+]([O-])C3)CC2 (centres unmarked) [2-152, 2-[[1-[2-(1H-Indol-5-yl)-6-oxo-5,7-dihydro-thieno[3,4-d]pyrimidin-4-yl]-2,3-dihydro-1H-indol-6-yl]oxy]-N,N-dimethyl-acetamide]
inhibition at 1 µM [1]: 88%
IC50: < 100 nM

More lines, now with the values ahead:

inhibition at 1 µM [1]: 100%
IC50: < 100 nM
SMILES: CN(C)C(=O)COc1ccc2c(c1)N(c1nc(-c3ccccc3F)nc3c1C[S+]([O-])C3)CC2 (centres unmarked) [2-100, 2-[[1-[2-(2-Fluorophenyl)-6-oxo-5,7-dihydro-thieno[3,4-d]pyrimidin-4-yl]-2,3-dihydro-1H-indol-6-yl]oxy]-N,N-dimethyl-acetamide]

inhibition at 1 µM [1]: 91%
IC50: 100 to 1000 nM
SMILES: CN(C)C(=O)COc1ccc2c(c1)N(c1nc(-c3ccccc3C#N)nc3c1C[S+]([O-])C3)CC2 (centres unmarked) [2-103, 2-[[1-[2-(2-Cyano-phenyl)-6-oxo-5,7-dihydro-thieno[3,4-d]pyrimidin-4-yl]-2,3-dihydro-1H-indol-6-yl]oxy]-N,N-dimethyl-acetamide]

inhibition at 1 µM [1]: 85%
IC50: 100 to 1000 nM
SMILES: CN(C)C(=O)COc1ccc2c(c1)N(c1nc(-c3ccccc3NS(C)(=O)=O)nc3c1C[S+]([O-])C3)CC2 (centres unmarked) [2-104, 2-[[1-[2-[2-(Methanesulfonamido)-phenyl]-6-oxo-5,7-dihydro-thieno[3,4-d]pyrimidin-4-yl]-2,3-dihydro-1H-indol-6-yl]oxy]-N,N-dimethyl-acetamide]

inhibition at 1 µM [1]: 77%
IC50: 100 to 1000 nM
SMILES: COc1ncccc1-c1nc2c(c(N3CCc4ccc(OCC(=O)N(C)C)cc43)n1)C[S+]([O-])C2 (centres unmarked) [2-105, 2-[[1-[2-(2-Methoxy-pyridin-3-yl)-6-oxo-5,7-dihydro-thieno[3,4-d]pyrimidin-4-yl]-2,3-dihydro-1H-indol-6-yl]oxy]-N,N-dimethyl-acetamide]

inhibition at 1 µM [1]: 72%
IC50: 100 to 1000 nM
SMILES: COc1cc(-c2nc3c(c(N4CCc5ccc(OCC(=O)N(C)C)cc54)n2)C[S+]([O-])C3)ccc1Cl (centres unmarked) [2-111, 2-[[1-[2-(4-Chloro-3-methoxy-phenyl)-6-oxo-5,7-dihydro-thieno[3,4-d]pyrimidin-4-yl]-2,3-dihydro-1H-indol-6-yl]oxy]-N,N-dimethyl-acetamide]

inhibition at 1 µM [1]: 64%
IC50: 100 to 1000 nM
SMILES: COc1cc(F)ccc1-c1nc2c(c(N3CCc4ccc(OCC(=O)N(C)C)cc43)n1)C[S+]([O-])C2 (centres unmarked) [2-112, 2-[[1-[2-(4-Fluoro-2-methoxy-phenyl)-6-oxo-5,7-dihydro-thieno[3,4-d]pyrimidin-4-yl]-2,3-dihydro-1H-indol-6-yl]oxy]-N,N-dimethyl-acetamide]

inhibition at 1 µM [1]: 102%
Inhibition at 1 μM test concentration [%] (Percentage inhibition of PDE4B at 1 μM test concentration, 1 µM): 101%
SMILES: CN(C)C(=O)COc1ccc2c(c1)N(c1nc(-c3ccnc(F)c3)nc3c1C[S+]([O-])C3)CC2 (centres unmarked) [2-138, 2-((1-(2-(2-Fluoropyridin-4-yl)-6-oxido-5,7-dihydrothieno[3,4-d]pyrimidin-4-yl)indolin-6-yl)oxy)-N,N-dimethylacetamide]

inhibition at 1 µM [1]: 92%
IC50: < 100 nM
SMILES: CN(C)C(=O)COc1ccc2c(c1)N(c1nc(-c3ccc4cccnc4c3)nc3c1C[S+]([O-])C3)CC2 (centres unmarked) [2-149, N,N-Dimethyl-2-[[1-(6-oxo-2-quinolin-7-yl-5,7-dihydro-thieno[3,4-d]pyrimidin-4-yl)-2,3-dihydro-1H-indol-6-yl]oxy]-acetamide]
